Assay results taken from patent publication US20150004100A1, “HETEROCYCLIC COMPOUNDS AS IMAGING PROBES OF TAU PATHOLOGY” (GE HEALTHCARE LIMITED, priority 2011, published 2015).
Entries after “also recorded” stand apart in the source; their conditions may differ.

Key:
[1] = test system: Aβ+ plaques; assay: Tissue binding assay (fluorescence), plaques in human AD tissue sections; set-up: key to Plaques (staining): −: No staining; +: weak staining; ++: moderate staining; +++: intense staining; settings: for Plaques (staining): Table 2, 100 μM, human AD tissue; for Binding to plaques (in words): high test concentration, AD tissue
Method: (§1) Human brain tissue samples from the entorhinal cortex of patients with Alzheimer's disease (AD) and healthy controls were obtained from Tissue Solutions (Tissue Solutions Ltd, Glasgow, UK). Tissue samples were collected after informed written consent, and specimens were dissected at the tissue bank and snap-frozen for cryopreservation at a time interval of between 3 and 18 h after death. The frozen tissue was embedded in TissueTek® (VWR) and sectioned using a Microm HM560 cryostat (Thermo Scientific). Serial 12 μm sections were mounted onto SuperFrost®+ glass slides (VWR) and stored a −70° C.
(§2) The binding of compounds to tau+NFTs and Aβ+ plaques in human AD tissue were evaluated based on fluorescence.
(§3) Briefly, tissue sections were defrosted and fixed in ice-cold 70% ethanol. All tissue sections were rinsed with PBS after fixation and between all subsequent incubation steps. To quench autofluorescence, tissue sections were incubated first with 0.25% KMnO4 (Sigma-Aldrich) in PBS for 12 min, and then with 0.1% […]/0.1% oxalic acid (both reagents from Sigma-Aldrich) in PBS for 1 min. The tissue sections were blocked with 2% BSA in PBS for 10 min, and then incubated with the test compounds at 100 μM concentration for 1 h at RT. […] Finally the tissue sections were rinsed in PBS, and mounted in SlowFade® mounting media (Invitrogen). Images of labelled tissue sections were captured using a Nikon digital camera connected to a Leica microscope and using the NIS Elements D software (Nikon). Images were further processed with the Photoshop® software (Adobe).

[2] = test system: tau+ NFTs; assay: Tissue binding assay (fluorescence), NFTs in human AD tissue sections; set-up: key to NFTs (staining): −: No staining; +: weak staining; ++: moderate staining; +++: intense staining; settings: for NFTs (staining): Table 2, human AD tissue
[3] = test system: Aβ+ plaques; assay: Tissue binding assay (fluorescence), plaques in human AD tissue sections; set-up: key to Plaques (staining): −: No staining; +: weak staining; ++: moderate staining; +++: intense staining; settings: for Plaques (staining): Table 2, human AD tissue
[4] = test system: NFTs and plaques; settings: literature reports; cited from earlier work
[5] = test system: tau+ NFTs; assay: Tissue binding assay (fluorescence), NFTs in human AD tissue sections; set-up: key to NFTs (staining): −: No staining; +: weak staining; ++: moderate staining; +++: intense staining; settings: for NFTs (staining): Table 2, 100 μM, human AD tissue; for Binding to NFTs (in words): high test concentration, AD tissue
Method: as §1, §2, §3

[6] = test system: tau aggregates over Aβ1-42 amyloid; settings: in vitro, Kudo et al. 2005; cited from earlier work
[7] = PAMPA (parallel artificial membrane permeability assay); assay type: in vitro ADME; settings: 10 μM, 5 h at RT; criterion >−6
Method: The PAMPA assay is used to determine how well a compound crosses a cell membrane by measuring its passage through a phosphotidyl choline barrier. A permeability coefficient >−6 indicates high permeability across lipid membranes and is indicative of a compounds ability to cross the blood brain barrier.
A 10 μM solution was incubated on a PDVF membrane coated with a 2% phoshotidyl choline solution for 5 h at RT. Membrane penetration was measured using LC-MS.

[8] = In vivo cold bio-distribution in rat (brain uptake, LC-MS)
Method: All animal studies were in compliance with local rules and regulations. Test compounds were administered by intravenous (i.v) injection through the tail vein of naïve male Wistar rats (50 μg test compound/rat). The animals were sacrificed by dislocation of the neck at 2, 10, 30, 60 min post-injection (p.i). The brain and plasma were collected from each animal. The concentration of test compound was measured in the plasma and brain homogenates using LS-MS, and calculated as % compound/g (% ID/g).

[9] = test system: rat liver microsomes; assay: Liver microsome stability assay, rat; assay type: in vitro ADME; settings: 1 μM, 37° C., parent compound remaining, criterion >50%
Method: (§4) The liver microsome stability assay provides an estimate of compound stability and rate of metabolism in vivo. The desirable criterion for this assay is >50% parent compound after 30 min.
(§5) A 1 μM compound solution was incubated with rat or human liver microsomes (20 mg/ml) at 37° C. and the amount of parent compound remaining following the incubation was determined after 5 and 30 min of incubation using LC-MS.

[10] = Protein binding assay, human plasma (rapid equilibrium dialysis); assay type: in vitro ADME; settings: % bound, criterion <99%
Method: (§6) The protein binding assays provide an estimate of free (unbound) fraction of the compound in the blood or brain in vivo. […] The desirable criterion for this assay is <99% of test compound bound.
(§7) Test compounds were first dissolved in DMSO to a concentration of 50 μM. This was followed by incubation in samples of human plasma and rat brain homogenates (final test concentration 1 μM). Binding of compounds to proteins was determined in the samples by rapid equilibrium dialysis after 5 and 30 min of incubation.

[11] = test system: human liver microsomes; assay: Liver microsome stability assay, human; assay type: in vitro ADME; settings: 1 μM, 37° C., parent compound remaining, criterion >50%
Method: as §4, §5

[12] = Protein binding assay, rat brain homogenates (rapid equilibrium dialysis); assay type: in vitro ADME; settings: rat brain homogenate, % bound, criterion <99%
Method: as §6, §7

[13] = literature reports; cited from earlier work
[14] = lower test concentrations, AD tissue

SMILES	Plaques (staining) [1]	Binding to plaques (in words) [1]	NFTs (staining) ([2]; 1 μM)	NFTs (staining) ([2]; 10 μM)	Plaques (staining) ([3]; 1 μM)	Plaques (staining) ([3]; 10 μM)	Reported binding to NFTs / plaques (in words) [4]	NFTs (staining) [5]	Binding to NFTs (in words) [5]	Selectivity for tau aggregates over Aβ1-42 amyloid [6]	PAMPA Log Pe [7]	Liver stability Rat (% PCP) 5 min [9] [% PCP]	Liver stability Rat (% PCP) 30 min [9] [% PCP]	fraction unbound at 1 μM [10]	Liver stability Human (% PCP) 5 min [11] [% PCP]	Liver stability Human (% PCP) 30 min [11] [% PCP]	fraction unbound at 1 μM [12]	Reported brain uptake in vivo (in words) [13]	other results
CC(=C(C#N)C#N)c1ccc2cc(N(C)CCF)ccc2c1 [FDDNP, 2-(1-(2-(N-(2-fluoroethy)-N-methylamino)-naphthalene-6-yl)-ethylidende)-malononitrile, reference compound]	+++	detected to both NFTs and plaques	+	++	+	++	binds to both NFTs and plaques	+++	detected to both NFTs and plaques										
Nc1ccc(-c2ccc3ccccc3n2)cc1 [BF-170]										threefold									
CNc1ccc(-c2ccc3ccccc3n2)cc1 [BF-158]										threefold									
CC(C)NC(=O)c1nn(-c2ccc(OCCF)cc2)c(=O)c2c(N)scc12 [Compound 38]	++	binds to both NFTs (A) and plaques (B); also recorded: bind to both NFTs and plaques	+	++	−	+		+++	binds to both NFTs (A) and plaques (B); also recorded: bind to both NFTs and plaques		−5.02	81.7	56.4	0.0642	87.2	74.4	0.428		Binding preference for NFTs (in words) [2, 14]: binds preferentially to NFTs; also recorded: bind with a preference for NFTs; tissue uptake at 2 min ([8]; male, Wistar, rat, brain, iv, 50 μg/rat, 2 min p.i.): > 0.2 %ID/g; tissue uptake at 10 min ([8]; male, Wistar, rat, brain, iv, 50 μg/rat, 10 min p.i.): 0.081 %ID/g; tissue uptake at 30 min ([8]; male, Wistar, rat, brain, iv, 50 μg/rat, 30 min p.i.): 0.021 %ID/g; tissue uptake at 60 min ([8]; male, Wistar, rat, brain, iv, 50 μg/rat, 60 min p.i.): 0.011 %ID/g; Clearance ratio 2:30 min ([8]; rat brain, 2 min vs 30 min p.i.): 13.3; Brain uptake and clearance (in words) ([8]; rat, from clearance ratio): rapid brain uptake followed by rapid clearance; Brain uptake % ID/g p.i ([8]; rat, i.v., 2 min p.i.): 0.28 % ID/g
[11CH3]Nc1ccc(-c2nc3ccc(O)cc3s2)cc1 [PiB, Pittsburgh compound B, reference compound]	+++	detected to both NFTs and plaques	−	+	++	++	bind with a preference to Aβ+ plaques	+++	detected to both NFTs and plaques									high brain uptake in vivo	Binding to plaques (in words) [3, 14]: only bound to plaques
CC(C)NC(=O)c1nn(-c2ccc(Cl)cc2)c(=O)c2c(N)scc12 [ATPZ, reference compound]	+		+	++	−	−		+++			−5.24	97.06	70.19	0.0098	98.9	68.29	0.0906	high brain uptake in vivo	
